Active and inactive are the calls of the source.
How the values were obtained:
[1] = HEK-293T viability loss after treatment – luminescence, T-cell screen hits, cytotoxicity control for TCR NF-kB inhibitor project, dose response (AID 489026); format: functional, cell-based;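 further: cells exposed to compound about 14 hours before the viability readout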
[2] = target: Nonstructural protein 1 (Influenza A virus, UniProt Q194T2); format: functional, Influenza A virus (A/California/07/2009(H1N1))
[3] = target: T1, Microphthalmia-associated transcription factor (Homo sapiens, UniProt O75030); assay: reducers of TRPM1 reporter luminescence, concentration series – cell-based, SK-MEL-5, cherry-picked, set 3, MITF inhibitor project, dose response (AID 493073); format: functional;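 further: SK-MEL-5 melanoma cells with luciferase driven by the MITF target TRPM1 promoter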
T1 sequence (O75030 whole entry): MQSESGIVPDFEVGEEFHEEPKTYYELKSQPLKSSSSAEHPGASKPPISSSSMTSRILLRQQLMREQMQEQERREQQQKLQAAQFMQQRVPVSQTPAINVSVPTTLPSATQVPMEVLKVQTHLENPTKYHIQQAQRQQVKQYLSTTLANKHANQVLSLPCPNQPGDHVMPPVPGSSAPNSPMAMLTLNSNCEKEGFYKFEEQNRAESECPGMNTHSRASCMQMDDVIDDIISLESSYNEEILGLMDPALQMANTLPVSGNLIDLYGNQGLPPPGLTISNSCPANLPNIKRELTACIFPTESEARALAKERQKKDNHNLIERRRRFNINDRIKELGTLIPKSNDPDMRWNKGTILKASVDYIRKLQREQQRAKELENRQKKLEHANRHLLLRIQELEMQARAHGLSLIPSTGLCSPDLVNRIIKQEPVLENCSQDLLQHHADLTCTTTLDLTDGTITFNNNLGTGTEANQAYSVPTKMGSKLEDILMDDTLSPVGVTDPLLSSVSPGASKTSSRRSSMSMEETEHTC

[4] = test system: INS1; assay: INS-1E survival protection against cytokine death – cell-based, luminescence, retest, dose response (AID 449756); format: functional; details: Rattus norvegicus;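 further: cell death triggered by IL-1 beta plus TNF-alpha plus IFN-gamma mixture; protective hits raise ATP signal compared with cytokine alone wells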
[5] = reduction of Shn3 3'UTR-driven luciferase in osteoblasts – cell-based, Clone20 osteoblasts, firefly luciferase, cherry-picked, dose response (AID 624132); format: functional;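 further: firefly luciferase luminescence from reporter carrying the Shn3 3'UTR in osteoblasts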
[6] = loss of viability in HepG2 cells – cell-based, CellTiter-Glo, cherry-picked, cytotoxicity control for Shn3 inhibitor project, dose response (AID 624134); format: functional
[7] = non-specific 3'UTR reporter inhibition in Clone20-Shn3RL – cell-based, Renilla luciferase, cherry-picked, counter-screen for Shn3 inhibitor project, dose response (AID 624133); format: functional
[8] = target: T2, Voltage-gated N-type calcium channel alpha-1B subunit/Amyloid beta A4 precursor protein-binding family A member 1 (Homo sapiens, UniProt Q00975+Q02410); format: protein assay
[9] = target: T2, Voltage-gated N-type calcium channel alpha-1B subunit/Amyloid beta A4 precursor protein-binding family A member 1; format: protein assay; remark: listed apart in the source
[10] = target: T3, Carboxy-terminal domain RNA polymerase II polypeptide A small phosphatase 1 (Homo sapiens, UniProt Q9GZU7); assay: CTDSP1 inhibitors, concentration-response, biochemical, absorbance readout, ultra-high-throughput screen actives (AID 540297); format: functional
T3 sequence (Q9GZU7 whole entry): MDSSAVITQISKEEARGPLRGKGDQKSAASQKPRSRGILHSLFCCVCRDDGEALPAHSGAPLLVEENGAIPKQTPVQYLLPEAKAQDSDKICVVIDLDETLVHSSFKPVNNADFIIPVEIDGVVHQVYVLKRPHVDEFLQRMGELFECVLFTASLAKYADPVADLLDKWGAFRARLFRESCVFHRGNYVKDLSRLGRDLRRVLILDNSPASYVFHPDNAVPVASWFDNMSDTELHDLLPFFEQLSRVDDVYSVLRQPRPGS

[11] = target: T4, Small ubiquitin-related modifier 1 (Homo sapiens, UniProt P63165); assay: SUMO1 protein interaction blockers, potency – biochemical, fluorescence polarization, uHTS hits, dose response (AID 624382); format: functional; details: read-out: IC50_Mean
[12] = target: T4, Small ubiquitin-related modifier 1; assay: SUMO1 protein-protein binding blockers, potency – biochemical, FRET, dose response (AID 624383); format: functional; details: read-out: IC50_Mean
[13] = blockers of bursicon-stimulated LGR2 cAMP reporter – cell-based, HEK293, CRE-luciferase reporter, cherry pick, set 2, dose response (AID 743343); format: functional;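 further: transfected cells were stimulated with diluted bursicon conditioned medium after compound addition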
[14] = blockade of melanocortin 4 receptor signaling – cell-based, plate reader, cherry pick, counter-screen for LGR2 antagonist project, dose response (AID 743444); format: functional;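 further: transfected HEK 293 cells stimulated with alpha-MSH peptide; potency of inhibitors of the alpha-MSH evoked signal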
[15] = target: T5, SUMO-activating enzyme (Homo sapiens, UniProt Q9UBT2); assay: blockers of UBC9-mediated SUMO conjugation – biochemical, AlphaScreen, SUMOylation inhibitor project, confirmation (AID 2018); format: functional
[16] = target: T5, SUMO-activating enzyme; assay: blockers of SAE1/SAE2–UBC9 SUMO transfer – biochemical, HTRF, uHTS, primary screen (AID 2006); format: protein-complex assay
[17] = target: T6, Aminopeptidase N (Plasmodium falciparum FcB1/Columbia, UniProt O96935); assay: malaria alanyl aminopeptidase activity blockers – biochemical, fluorogenic H-Leu-NHMec substrate, 1536-well (AID 1445); design: species or system Plasmodium falciparum 3D7, 3D7
T6 sequence (O96935 whole entry): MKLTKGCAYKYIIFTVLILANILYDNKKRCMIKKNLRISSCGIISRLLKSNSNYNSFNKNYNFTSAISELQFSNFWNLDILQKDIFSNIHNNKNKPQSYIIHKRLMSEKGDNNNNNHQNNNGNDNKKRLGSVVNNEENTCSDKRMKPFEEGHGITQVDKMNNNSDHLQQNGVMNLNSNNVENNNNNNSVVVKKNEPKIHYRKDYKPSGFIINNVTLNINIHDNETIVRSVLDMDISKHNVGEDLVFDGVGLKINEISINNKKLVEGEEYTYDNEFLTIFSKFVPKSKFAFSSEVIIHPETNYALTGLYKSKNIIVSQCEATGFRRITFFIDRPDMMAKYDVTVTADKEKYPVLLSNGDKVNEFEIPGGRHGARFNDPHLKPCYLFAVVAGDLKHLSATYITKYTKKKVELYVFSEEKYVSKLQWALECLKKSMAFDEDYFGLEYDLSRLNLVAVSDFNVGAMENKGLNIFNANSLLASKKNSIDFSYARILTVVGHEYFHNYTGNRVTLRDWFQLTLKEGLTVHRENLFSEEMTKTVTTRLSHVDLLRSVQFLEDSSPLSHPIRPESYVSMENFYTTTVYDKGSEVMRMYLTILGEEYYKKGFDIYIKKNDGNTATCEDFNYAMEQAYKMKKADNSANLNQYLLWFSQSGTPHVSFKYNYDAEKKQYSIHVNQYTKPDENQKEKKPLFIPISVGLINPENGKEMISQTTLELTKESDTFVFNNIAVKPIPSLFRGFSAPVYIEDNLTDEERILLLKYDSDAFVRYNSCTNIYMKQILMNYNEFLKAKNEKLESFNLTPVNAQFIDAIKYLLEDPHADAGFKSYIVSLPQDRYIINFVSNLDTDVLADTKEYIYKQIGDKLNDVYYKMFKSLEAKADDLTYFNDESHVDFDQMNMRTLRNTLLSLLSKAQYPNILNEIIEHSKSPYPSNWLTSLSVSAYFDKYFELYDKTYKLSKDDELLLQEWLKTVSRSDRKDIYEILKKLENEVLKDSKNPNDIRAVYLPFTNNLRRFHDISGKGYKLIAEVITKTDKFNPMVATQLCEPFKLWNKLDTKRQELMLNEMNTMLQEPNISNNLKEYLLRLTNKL

[18] = Luminescence Cell-Based Dose Retest to Confirm Inhibitors of Cancer Stem Cells. [Related pubchem assays (depositor defined):AID2717, AID2721]; format: functional, Homo sapiens; details: Homo sapiens
[19] = P. falciparum Dd2 growth inhibitors, dose response, SYBR Green, cherry-picked samples (AID 1159567); format: functional, cell-based
[20] = toxicity to human hepatoma HepG2 cells – cell-based, cherry-picked samples, cytotoxicity control, dose response (AID 1159577); format: functional
[21] = target: Mu-type opioid receptor (Homo sapiens, UniProt P35372); format: functional, cell-based;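 further: U2OS cells with beta-arrestin recruitment to OPRM1 by beta-gal complementation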
[22] = target: 5-hydroxytryptamine receptor 2A (Mus musculus, UniProt P35363); format: functional, cell-based;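 further: CHO-K1 cells with tagged receptor and beta-arrestin; agonist potency measured as compound-induced activation of the receptor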
[23] = target: T7, Estrogen receptor (Homo sapiens, UniProt P03372);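 further: potency for inhibiting coactivator peptide recruitment to the receptor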
T7 sequence (P03372 whole entry): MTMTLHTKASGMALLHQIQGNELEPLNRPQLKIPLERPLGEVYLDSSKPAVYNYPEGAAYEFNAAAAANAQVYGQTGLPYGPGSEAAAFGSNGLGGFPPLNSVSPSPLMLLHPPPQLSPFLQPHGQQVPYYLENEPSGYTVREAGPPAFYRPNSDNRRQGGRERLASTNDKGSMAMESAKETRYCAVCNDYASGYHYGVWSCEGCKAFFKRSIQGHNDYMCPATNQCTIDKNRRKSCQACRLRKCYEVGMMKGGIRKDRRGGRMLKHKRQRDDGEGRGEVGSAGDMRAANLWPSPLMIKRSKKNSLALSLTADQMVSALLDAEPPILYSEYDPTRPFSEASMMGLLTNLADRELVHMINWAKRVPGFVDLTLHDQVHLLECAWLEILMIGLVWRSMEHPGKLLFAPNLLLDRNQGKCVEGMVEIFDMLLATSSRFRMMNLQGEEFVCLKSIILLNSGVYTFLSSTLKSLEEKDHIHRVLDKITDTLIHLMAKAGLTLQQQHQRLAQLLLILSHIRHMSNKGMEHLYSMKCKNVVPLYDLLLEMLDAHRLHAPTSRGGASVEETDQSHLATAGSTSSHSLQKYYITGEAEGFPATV

T4 sequence (P63165 whole entry): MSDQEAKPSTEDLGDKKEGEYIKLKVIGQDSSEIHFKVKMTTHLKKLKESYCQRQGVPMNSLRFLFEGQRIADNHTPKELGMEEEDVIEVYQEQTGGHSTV
Sequence of Nonstructural protein 1 (Q194T2 whole entry): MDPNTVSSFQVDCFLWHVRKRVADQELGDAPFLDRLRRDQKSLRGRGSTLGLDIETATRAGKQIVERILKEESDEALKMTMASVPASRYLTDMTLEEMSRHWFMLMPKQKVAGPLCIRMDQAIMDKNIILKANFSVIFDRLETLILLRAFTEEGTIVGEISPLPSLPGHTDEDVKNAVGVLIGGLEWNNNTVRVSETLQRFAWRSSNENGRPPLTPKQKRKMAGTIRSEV
T5 sequence (Q9UBE0 whole entry): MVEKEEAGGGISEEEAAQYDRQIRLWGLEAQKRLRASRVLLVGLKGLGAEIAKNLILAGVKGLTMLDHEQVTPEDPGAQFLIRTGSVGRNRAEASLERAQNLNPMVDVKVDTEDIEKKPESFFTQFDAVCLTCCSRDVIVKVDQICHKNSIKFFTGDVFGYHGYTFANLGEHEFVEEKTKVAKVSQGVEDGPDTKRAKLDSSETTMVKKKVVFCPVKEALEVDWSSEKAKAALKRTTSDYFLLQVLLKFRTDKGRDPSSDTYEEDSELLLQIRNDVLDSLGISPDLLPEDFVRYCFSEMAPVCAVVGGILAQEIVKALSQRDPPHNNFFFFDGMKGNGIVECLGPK
T5 sequence (Q9UBT2 whole entry): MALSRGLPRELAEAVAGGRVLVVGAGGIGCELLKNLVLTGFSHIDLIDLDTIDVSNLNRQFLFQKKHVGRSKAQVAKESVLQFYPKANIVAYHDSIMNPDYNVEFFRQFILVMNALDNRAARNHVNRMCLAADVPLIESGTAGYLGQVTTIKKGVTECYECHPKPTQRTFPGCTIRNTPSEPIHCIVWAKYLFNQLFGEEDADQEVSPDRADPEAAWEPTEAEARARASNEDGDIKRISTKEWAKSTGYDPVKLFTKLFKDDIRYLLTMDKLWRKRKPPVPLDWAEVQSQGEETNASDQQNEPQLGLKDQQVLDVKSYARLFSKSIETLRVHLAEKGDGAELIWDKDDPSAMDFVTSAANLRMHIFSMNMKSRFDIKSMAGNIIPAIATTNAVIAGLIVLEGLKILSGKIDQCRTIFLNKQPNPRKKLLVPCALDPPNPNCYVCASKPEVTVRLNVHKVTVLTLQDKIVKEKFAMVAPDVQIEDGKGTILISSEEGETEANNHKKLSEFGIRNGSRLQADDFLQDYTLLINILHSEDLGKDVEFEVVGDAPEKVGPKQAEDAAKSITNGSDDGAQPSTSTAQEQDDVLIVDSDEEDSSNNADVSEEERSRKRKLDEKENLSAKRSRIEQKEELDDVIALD
T2 sequence (Q00975 whole entry): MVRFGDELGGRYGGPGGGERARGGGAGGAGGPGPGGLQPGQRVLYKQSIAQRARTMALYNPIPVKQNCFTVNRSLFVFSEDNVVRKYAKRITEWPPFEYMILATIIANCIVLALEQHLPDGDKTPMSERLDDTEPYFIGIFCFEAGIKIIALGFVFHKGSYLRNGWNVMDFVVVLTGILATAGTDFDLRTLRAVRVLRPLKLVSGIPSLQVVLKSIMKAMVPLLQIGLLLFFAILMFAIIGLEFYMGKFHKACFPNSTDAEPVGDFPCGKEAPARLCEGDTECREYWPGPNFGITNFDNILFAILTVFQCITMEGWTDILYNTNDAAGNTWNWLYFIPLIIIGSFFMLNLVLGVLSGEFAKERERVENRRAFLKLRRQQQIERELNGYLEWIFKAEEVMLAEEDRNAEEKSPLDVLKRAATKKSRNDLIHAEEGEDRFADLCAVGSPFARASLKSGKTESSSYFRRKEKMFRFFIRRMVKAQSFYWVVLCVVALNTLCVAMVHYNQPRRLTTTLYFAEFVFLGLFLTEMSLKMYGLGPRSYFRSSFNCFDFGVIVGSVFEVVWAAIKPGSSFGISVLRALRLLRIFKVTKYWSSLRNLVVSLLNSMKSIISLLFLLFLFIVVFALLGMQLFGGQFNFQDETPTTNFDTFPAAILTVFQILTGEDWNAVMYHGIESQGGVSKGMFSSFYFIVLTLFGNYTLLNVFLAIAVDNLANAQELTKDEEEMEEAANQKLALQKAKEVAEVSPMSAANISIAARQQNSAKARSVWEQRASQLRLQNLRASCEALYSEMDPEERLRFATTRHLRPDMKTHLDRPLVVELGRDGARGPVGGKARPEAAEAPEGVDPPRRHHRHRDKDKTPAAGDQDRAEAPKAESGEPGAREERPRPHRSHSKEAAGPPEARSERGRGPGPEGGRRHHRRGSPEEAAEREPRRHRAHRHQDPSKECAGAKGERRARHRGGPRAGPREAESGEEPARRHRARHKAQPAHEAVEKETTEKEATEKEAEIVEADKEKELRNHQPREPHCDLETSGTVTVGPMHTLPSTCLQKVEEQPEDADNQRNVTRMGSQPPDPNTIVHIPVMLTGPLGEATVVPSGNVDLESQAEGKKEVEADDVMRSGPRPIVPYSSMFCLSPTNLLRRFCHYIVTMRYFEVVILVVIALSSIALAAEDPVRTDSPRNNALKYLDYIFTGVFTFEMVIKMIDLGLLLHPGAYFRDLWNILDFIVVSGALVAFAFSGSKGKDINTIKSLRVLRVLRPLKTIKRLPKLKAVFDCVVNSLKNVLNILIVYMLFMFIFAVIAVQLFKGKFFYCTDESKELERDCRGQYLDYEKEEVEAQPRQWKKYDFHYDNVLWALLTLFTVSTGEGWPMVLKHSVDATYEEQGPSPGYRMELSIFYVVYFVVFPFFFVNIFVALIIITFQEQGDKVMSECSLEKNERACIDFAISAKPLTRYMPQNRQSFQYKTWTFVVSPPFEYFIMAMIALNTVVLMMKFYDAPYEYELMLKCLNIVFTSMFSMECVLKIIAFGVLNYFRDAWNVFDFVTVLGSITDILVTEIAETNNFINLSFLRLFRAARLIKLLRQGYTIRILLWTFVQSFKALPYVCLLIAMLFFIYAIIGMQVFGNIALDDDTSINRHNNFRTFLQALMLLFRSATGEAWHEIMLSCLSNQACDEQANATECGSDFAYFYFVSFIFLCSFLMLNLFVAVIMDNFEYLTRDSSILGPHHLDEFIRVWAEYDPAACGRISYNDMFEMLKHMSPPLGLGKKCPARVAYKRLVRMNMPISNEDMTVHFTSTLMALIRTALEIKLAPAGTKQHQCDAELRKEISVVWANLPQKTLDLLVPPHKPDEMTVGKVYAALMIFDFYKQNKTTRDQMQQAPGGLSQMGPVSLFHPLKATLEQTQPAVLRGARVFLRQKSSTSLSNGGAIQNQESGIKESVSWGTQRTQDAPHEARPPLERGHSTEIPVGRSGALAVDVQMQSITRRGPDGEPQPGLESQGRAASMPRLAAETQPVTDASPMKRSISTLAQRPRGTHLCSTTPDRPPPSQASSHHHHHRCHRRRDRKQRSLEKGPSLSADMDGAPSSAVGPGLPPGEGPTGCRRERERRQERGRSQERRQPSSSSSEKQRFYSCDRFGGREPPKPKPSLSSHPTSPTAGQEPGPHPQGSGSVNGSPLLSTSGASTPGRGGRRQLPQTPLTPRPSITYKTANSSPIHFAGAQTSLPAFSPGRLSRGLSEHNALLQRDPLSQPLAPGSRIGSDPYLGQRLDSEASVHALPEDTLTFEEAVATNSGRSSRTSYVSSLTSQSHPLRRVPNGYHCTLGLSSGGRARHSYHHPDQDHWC
T2 sequence (Q02410 whole entry): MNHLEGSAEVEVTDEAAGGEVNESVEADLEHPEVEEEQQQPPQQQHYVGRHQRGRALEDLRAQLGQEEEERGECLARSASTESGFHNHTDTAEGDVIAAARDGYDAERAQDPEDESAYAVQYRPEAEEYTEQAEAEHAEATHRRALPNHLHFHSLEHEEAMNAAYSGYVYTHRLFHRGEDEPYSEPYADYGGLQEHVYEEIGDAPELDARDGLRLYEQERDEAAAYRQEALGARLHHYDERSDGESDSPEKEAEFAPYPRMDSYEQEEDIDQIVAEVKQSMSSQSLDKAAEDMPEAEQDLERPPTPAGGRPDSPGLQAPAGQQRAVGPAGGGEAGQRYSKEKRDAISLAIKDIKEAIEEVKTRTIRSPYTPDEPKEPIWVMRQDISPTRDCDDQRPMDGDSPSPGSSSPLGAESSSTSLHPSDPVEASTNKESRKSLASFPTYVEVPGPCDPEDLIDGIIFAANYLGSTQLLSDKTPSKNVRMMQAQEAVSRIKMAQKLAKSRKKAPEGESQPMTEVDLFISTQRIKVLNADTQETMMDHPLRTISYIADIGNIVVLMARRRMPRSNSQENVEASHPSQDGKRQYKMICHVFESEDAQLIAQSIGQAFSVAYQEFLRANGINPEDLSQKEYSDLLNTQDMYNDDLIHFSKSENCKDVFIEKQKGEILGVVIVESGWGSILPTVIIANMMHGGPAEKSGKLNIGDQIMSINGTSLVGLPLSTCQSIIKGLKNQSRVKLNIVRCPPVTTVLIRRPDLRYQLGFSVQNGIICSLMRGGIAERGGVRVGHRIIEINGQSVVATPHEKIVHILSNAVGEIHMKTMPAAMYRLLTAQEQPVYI
Sequence of 5-hydroxytryptamine receptor 2A (P35363 whole entry): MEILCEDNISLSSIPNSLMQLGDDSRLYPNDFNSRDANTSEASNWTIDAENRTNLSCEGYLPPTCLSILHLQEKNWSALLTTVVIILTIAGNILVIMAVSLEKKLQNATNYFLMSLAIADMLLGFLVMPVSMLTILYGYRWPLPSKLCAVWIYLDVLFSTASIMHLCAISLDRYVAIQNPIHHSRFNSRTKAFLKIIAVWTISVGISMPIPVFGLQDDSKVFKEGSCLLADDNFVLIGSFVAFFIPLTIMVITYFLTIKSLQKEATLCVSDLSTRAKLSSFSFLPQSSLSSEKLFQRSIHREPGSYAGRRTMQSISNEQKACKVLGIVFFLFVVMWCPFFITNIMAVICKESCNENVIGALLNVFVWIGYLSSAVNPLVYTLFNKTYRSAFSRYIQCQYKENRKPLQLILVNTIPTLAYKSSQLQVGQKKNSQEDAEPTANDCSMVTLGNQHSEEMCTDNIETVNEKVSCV

For O=C(Nc1ccncc1)C1CCCN(S(=O)(=O)c2cccc3cccnc23)C1 (configuration not stated), the IC50 [1] was 67.5 µM (inactive).
In the case of O=C(Nc1nc(-c2ccccn2)cs1)c1ccc(F)c(S(=O)(=O)N2CCOCC2)c1, the IC50 [2] was 7.88 µM (active), the AC50 [3] was 5.7 µM (active) and the AC50 [4] was 1.59 µM (active). The AC50 [5] was 1.32 µM (active), the AC50 [6] was > 70 µM (inactive) and the AC50 [7] was 0.711 µM (active).
With Cc1nc2sc(C(=O)OC(C)C)c(N)c2c(C)c1C the IC50 [8] was 4.25 µM (active) and the IC50 [9] was > 50 µM (inactive).
For O=C(O)c1cc(-c2ccco2)nn1-c1cccc(Cl)c1, the IC50 [10] was 5.39 µM (active), the IC50 [11] was > 66.6 µM (inactive) and the IC50 [12] was 27.1 µM (inactive).
With Cn1cccc1C(=O)OCC(=O)Nc1ccc2c(c1)OCCO2 the AC50 [13] was 11.3 µM (active) and the AC50 [14] was 14.8 µM (active).
With O=C(Nc1ccc(N2CCOCC2)cc1)c1ccc(Cl)c(S(=O)(=O)N2CCCCC2)c1 the IC50 [1] was > 80 µM (inactive), the AC50 [5] was 0.81 µM (active) and the AC50 [6] was 1.18 µM (active). For the same compound, the AC50 [7] was 1.58 µM (active).
With COc1cccc(N2CCN(C(=O)c3cn(Cc4ccccc4)nc3-c3cccnc3)CC2)c1 the IC50 [1] was > 80 µM (inactive).
In the case of COc1ccc2[nH]c3c(=O)n(CCCC(=O)NC4CCC(C)CC4)c(=S)[nH]c3c2c1 (configuration not stated), the IC50 [15] was 38.1 µM (active) and the IC50 [16] was 22.7 µM (active).
With O=C(N/N=C(\Cc1ncc[nH]1)c1ccccc1)c1ccncc1 the IC50 [17] was 21.4 µM (active), the AC50 [18] was 3.42 µM (active) and the IC50 [2] was 2.46 µM (active). The AC50 [4] was 7.38 µM (active).
With COc1ccccc1C#Cc1ccc([C@@H]2[C@@H](CO)N(C(=O)C3CCCC3)[C@H]2C#N)cc1 the AC50 [19] was 4.57 µM (active) and the AC50 [20] was > 39 µM (inactive).
With COc1ccc(C#Cc2ccc([C@H]3[C@@H](CO)N4CCCCN(Cc5ccncc5)C[C@H]34)cc2)cc1 the AC50 [19] was 1.87 µM (active) and the AC50 [20] was 10.7 µM (active).
With O=C1C2CCCN2C(=O)N1CCCCN1CCN(c2ccccc2)CC1 (configuration not stated) the EC50 [21] was 92.4 µM (inactive) and the EC50 [22] was 2.81 µM (active).
With CCOC(=O)[N-]c1cn(N2CCOCC2)n[o+]1 [MOLSIDOMINE] the IC50 [23] was 24.7 µM (active).

Reference: ChEMBL document CHEMBL1201862, “PubChem BioAssay data set” (2004)
